From paper PMC4320118, “Micheliolide Derivative DMAMCL Inhibits Glioma Cell Growth In Vitro and In Vivo” (PLoS ONE, 2015)
Like-named read-outs stand apart in the source and are kept apart here.

Legend:
C6 cells = test: Cell proliferation MTT assay, C6; assay type: cell-based; conditions: Rattus norvegicus, 72 h
Description: C6 and U-87MG cell lines were obtained from the American Type Culture Collection (ATCC) and cultured in our laboratory. Rat C6 glioma cells were cultured in F12K nutrient medium (Gibco, Grand Island, […]) supplemented with 15% horse serum (Auckland, NZ), 2.5% fetal bovine serum (FBS), 100 U/mL penicillin, and […] streptomycin (Gibco, Paisley, Scotland, UK). Human U-87MG cells were cultured in minimum essential medium (MEM) supplemented with 10% FBS, 1% nonessential amino acids, 100 U/mL penicillin, and […] streptomycin. Cells were cultured under a humidified atmosphere containing 5% CO2 at 37°C, and medium was changed every 1 to 2 days.
Tumor cells were seeded in 96-well plates at a density of 3500 cells/well. After 24 h in culture, cells were exposed to different concentrations of DMAMCL or medium alone (control) for 72 h. Cell viability was determined by MTT assays. Briefly, MTT regent (0.5 mg/mL) was added to wells, and cells were incubated for 4 h at 37°C. After removing the supernatant, 200 μL of dimethyl sulfoxide (DMSO) (Fluka, Switzerland) was added to dissolve formazan crystals. The absorbance at 570 nm was measured by a microplate reader (Thermo Labsystems, Helsinki, Finland). Control absorbance was taken as 100%. The absorbance of DMAMCL-treated cells was taken as percentage survival. […]

U-87MG cells = test: Apoptosis by Annexin V/PI flow cytometry, U-87MG; assay type: cell-based, human
[1] = test system: Bcl-2 and Bax in C6 cells; test: Western blotting of Bcl-2 and Bax, C6 cells; assay type: cell-based, rat; conditions: 60 μM and 120μM, 24 hr
Description: The cellular proteins were extracted from 10^7 cultured cells after drug treatments using RIPA lysis buffer (Promega, USA). Western blotting analysis was performed to determine cellular responses targeting apoptosis-related proteins including Bcl-2 and Bax. Briefly, C6 and U-87MG cells were treated with different doses of DMAMCL for 24 hr at 37°C. Then cells were washed twice with cold phosphate buffered saline (PBS) and lysed in RIPA buffer containing 1mmol/l PMSF (Pheylmethylsulfonyl fluoride, Sigma, USA) on ice for 30 min. The total proteins of cells were obtained by centrifugation at 12000 rpm for 15 min. Next, the lysate proteins were resolved by SDS-PAGE and transferred to the Immobilon-P membranes (Millipore, Billerica, MA, USA). The membranes were blocked by 5% nonfat milk in Tris-buffered saline with 0.1% Tween 20 (TBST) and immunoblotted with the antibodies against β-actin, Bcl-2 and Bax (Cellsignaling Technology, USA) at 4°C overnight. Then membranes were incubated with HRP-conjugated secondary antibody for 1.5 hr at room temperature. The targeting antibodies were stained with enhanced chemiluminescent reagents (Millipore, Billerica, MA, USA) and visualized by ChemiScope 3600 Mini systerm (Clinx Science Instruments, China).

intracerebral C6 glioma = test system: intracerebral C6 glioma
Description: Adult Wistar rats (120–180 g, age 4–8 weeks) were obtained from the Animal Center at the Academy of Military Medical Sciences and had animal certification of SCXK (army) 2012–001. Animals were housed in collective cages at a temperature of 23 ± 2°C and relative humidity of 40% to 70%. All rats had free access to food and water.
Intracerebral tumor implantations were performed according to the following procedures. C6 tumors were maintained as subcutaneous tumors in rats. Subcutaneous masses were excised, dissociated, and mixed with matrigel on ice (BD Biosciences) at a ratio of 1:1. After removing of the hair on the skull, a small midline incision in the scalp was gently made under anesthesia with 2% sodium pentobarbital at a dose of 40mg/kg. C6 cells in matrigel (0.1 mL of the cell/matrigel mixture containing 10^8 cells /mL) were carefully injected into the right frontal cortex by a special 16-gauge stainless steel needle with 5 mm needle tubing. Implantation coordinates were determined from Swanson’s Stereotaxic Atlas guidelines (1992): 1.0 mm anterior and 3.0 mm lateral to bregma, at a depth of 5.0 mm from the brain surface. […] The syringe was slowly retracted, the hole was sealed with bone wax, and the incision was sutured under aseptic conditions. […] Then 0.015 mg/kg buprenorphine (s.c.) was administered to relieve the pain. The rats were replaced in cages and allowed to recover from anesthesia.
Rats were divided into the following 5 treatment groups 24 h after surgery (n = 9 rats /group) according to rat weight: 1) vehicle (normal saline: NS); 2) vincristine (VCR) at 100μg/kg; 3) DMAMCL at 25 mg/kg; 4) DMAMCL at 50 mg/kg; and 5) DMAMCL at 100 mg/kg. All drugs were prepared in NS and administered once daily for 21 days. DMAMCL was administered orally, and VCR was injected into the caudal vein. Rats were weighed and monitored for signs of mortality daily. Twenty one days into the treatment, rats were euthanized via CO2 asphyxiation under deep anesthesia by sodium pentobarbital. Brains and tumors were separated from the cerebellum and medulla oblongata, and weighed, photographed, fixed in formalin, and embedded in paraffin for sectioning. The tumor: brain weight ratio was assessed to observe the degree of tumor cell growth in brain. Serial sections (5 μm in thickness) were stained by hematoxylin and eosin (HE).

AML models = conditions: cited from earlier work
[2] = DMAMCL 25 mg/kg orally once daily for 21 days
[3] = DMAMCL 50 mg/kg orally once daily for 21 days
[4] = DMAMCL 100 mg/kg orally once daily for 21 days

CC1=C2CC[C@@](C)(O)[C@@H]2[C@H]2OC(=O)[C@@H](CN(C)C)[C@@H]2CC1 [DMAMCL, dimethylaminomicheliolide]
IC50 (C6 cells; read-out: IC50): 27.2 ± 1.89 µM | IC50 (C6 cells; read-out: x0 (midpoint of logistic fit, Fig 3A) (converted)): 27.2 ± 1.89 µM | Surviving cells (U-87MG cells; 240 μM): few surviving | Early and late apoptosis and necrosis (U-87MG cells; 24 hr post-treatment, dose-dependent): significantly increased early and late apoptosis and necrosis | Bax expression (Western blot) [1]: up-regulated Bax expression | Bcl-2 expression (Western blot) [1]: down-regulated Bcl-2 expression | Body weight End (intracerebral C6 glioma; [2]): 223.8 ± 13.1 g | Inhibition (percent decrease in tumor weight compared to the vehicle group) (intracerebral C6 glioma; [2]): 59.9% | Tumor weight (intracerebral C6 glioma; [2]): 0.29 ± 0.20 g | Tumor/brain (intracerebral C6 glioma; [2]): 15.0 ± 9.5 % | Rats surviving to the end of the study (intracerebral C6 glioma; DMAMCL 25 mg/kg, 21 days): 89% | Body weight End (intracerebral C6 glioma; [3]): 227.5 ± 11.9 g | Inhibition (percent decrease in tumor weight compared to the vehicle group) (intracerebral C6 glioma; [3]): 78.7% | Tumor weight (intracerebral C6 glioma; [3]): 0.15 ± 0.12 g | Tumor/brain (intracerebral C6 glioma; [3]): 6.3 ± 3.9 % | Rats surviving to the end of the study (intracerebral C6 glioma; DMAMCL 50 mg/kg, 21 days): 89% | Body weight End (intracerebral C6 glioma; [4]): 224.0 ± 12.1 g | Inhibition (percent decrease in tumor weight compared to the vehicle group) (intracerebral C6 glioma; [4]): 87.5% | Signs of toxicity in tumor-bearing rats (intracerebral C6 glioma; [4]): no signs of systemic or intracranial toxicity | Tumor weight (intracerebral C6 glioma; [4]): 0.09 ± 0.09 g | Tumor/brain (intracerebral C6 glioma; [4]): 4.2 ± 3.1 % | Histopathology of brain tissue (HE) (intracerebral C6 glioma; DMAMCL 100 mg/kg, 21 days): appeared similar to normal brain tissues | Rats surviving to the end of the study (intracerebral C6 glioma; DMAMCL 100 mg/kg, 21 days): 100% | Therapeutic efficacy in AML models (AML models): superior therapeutic efficacy
